{"source": "patent US8937038B2", "about": "“Composition containing peptide ligand that bonds with CXCR2 for treating infective and inflammatory diseases” (priority 2010, dated 2015)", "key": {"[1]": {"system": "bacteria in peritoneal fluids of CLP mice", "experiment": "In vivo disinfection activity: bacterial colonies in peritoneal fluid after CLP", "design": "species or system mouse; reference not given here", "details": "24 hours after the CLP; FIG. 10", "experimental": "A peritoneal lavage fluid was collected 24 hours after CLP, and incubated at 37° C. overnight in a blood agar base plate (trypticase soy agar Deeps, Becton Dickinson). The number of colony forming units (CFUs) was counted according to a method disclosed in Yan J J et al. 2004 Nat. Med. 10:161-167.\nA death rate by CLP is correlated with the number of bacterial colonies in a peritoneal fluid. Therefore, an effect of the Ac-PGP on removal of bacteria in a peritoneal fluid was examined. […] In vitro disinfection activity of the Ac-PGP was examined using neutrophils derived from a mouse. The mouse neutrophils were kept for an hour to phagocytize E. coli, and then stimulated with various concentrations of Ac-PGP (0.1 to 100 nM) for 20 minutes. […] A reactive oxygen species such as hydrogen peroxide was known as an important molecule participating in the disinfection activity. Therefore, an effect of Ac-PGP on production of hydrogen peroxide in the mouse neutrophils was examined. […] To examine a role of CXCR2 in production of hydrogen peroxide by the Ac-PGP, the mouse neutrophils were pretreated with a CXCR2 antagonist (SB225002) before they were treated with the Ac-PGP."}, "mouse neutrophils [2]": {"system": "mouse neutrophils", "experiment": "Disinfection activity of mouse neutrophils phagocytizing E. coli", "type": "cell-based", "details": "Ac-PGP 0.1 to 100 nM for 20 minutes, FIG. 11", "experimental": "(§1) Mouse neutrophils were separated from peripheral blood using a Histopaque-1077 solution (Sigma) (Bae Y S et al. 2001 Blood. 97: 2854-2862). The neutrophils separated from normal mice were stimulated with various concentrations of Ac-PGP for 10 minutes in the presence of cytochalasin B (5 μM). To identify the role of mCXCR2, the neutrophils were pre-incubated in various concentrations of SB225002 or a vehicle (DMSO) for 30 minutes in a stationary environment, and Ac-PGP (20 μM) was added, and incubated for 10 minutes. H2O2 in a supernatant was measured using a H2O2 measurement kit (Molecular probe).\nThe disinfection activities of the neutrophils were measured according to a method disclosed by Yan et al. (Yan J J et al. 2004 Nat. Med. 10:161-167). The neutrophils were stationarily incubated at 37° C. for an hour on a 13 mm plastic cover slip in a 60 mm plastic culture dish. The non-attached cells were removed by PBS. The attached neutrophils were stationarily incubated for an hour with 10^6 opsonized E. coli cells. The non-phagocytized E. coli cells were washed, and the number of bacteria surviving in the neutrophils was determined before and after the E. coli cells were treated with various concentrations of Ac-PGP or vehicle for an hour. A percentage of the apoptosized bacteria was calculated as follows. […]"}, "mouse neutrophils [3]": {"system": "mouse neutrophils", "experiment": "H2O2 production in mouse neutrophils", "type": "cell-based", "details": "various concentrations, 10 minutes, cytochalasin B 5 μM; FIG. 12", "experimental": "as §1\nA death rate by CLP is correlated with the number of bacterial colonies in a peritoneal fluid. Therefore, an effect of the Ac-PGP on removal of bacteria in a peritoneal fluid was examined. […] In vitro disinfection activity of the Ac-PGP was examined using neutrophils derived from a mouse. The mouse neutrophils were kept for an hour to phagocytize E. coli, and then stimulated with various concentrations of Ac-PGP (0.1 to 100 nM) for 20 minutes. […] A reactive oxygen species such as hydrogen peroxide was known as an important molecule participating in the disinfection activity. Therefore, an effect of Ac-PGP on production of hydrogen peroxide in the mouse neutrophils was examined. […]"}, "human neutrophils": {"system": "human neutrophils", "experiment": "Cytokine production by LPS-stimulated human neutrophils", "type": "cell-based", "details": "human neutrophils stimulated with LPS", "description": "All kinds of protocols used in human beings were approved by the Institutional Review Board (IRB) at Dong-A University Hospital, and prior consents were obtained from all blood donors. Peripheral blood was collected from healthy donors, and human peripheral monocytes were separated using a Histopaque-1077 gradient. Neutrophils were separated through methods such as dextran precipitation of red blood cell, hypotonic lysis, and usage of lymphocyte isolation medium gradient, as known in the related art (Bae, Y. S. et al. Blood 97, 2854-2862(2001)). The separated human leukocytes were used immediately.\nNext, an effect of the Ac-PGP on production of cytokines by human neutrophils and PBMCs was examined. […] A human CXCR2 chemokine agonist CXCL8 had few effects on production of TNF-α or IFN-γ stimulated with LPS (FIG. 28 to FIG. 31). Therefore, the Ac-PGP could improve both antiseptic activities in leukocytes derived from human beings and mice."}}}
{"substance": "acetylated-Pro-Gly-Pro [Ac-PGP]", "values": [{"measurement": "number of bacterial colonies in the peritoneal fluid", "setting": "[1]", "result": 82.1, "unit": "%"}, {"measurement": "disinfection activity", "setting": "mouse neutrophils [2]", "result": "highly increased the disinfection activity in a dose-dependent manner"}, {"measurement": "production of hydrogen peroxide", "setting": "mouse neutrophils [3]", "result": "strongly increased production of hydrogen peroxide in a concentration-dependent manner"}, {"measurement": "production of TNF-α", "setting": "human neutrophils; FIG. 28", "result": "remarkably suppressed"}, {"measurement": "production of IFN-γ", "setting": "human neutrophils; FIG. 30", "result": "remarkably improved"}]}
